The text below walks through data of patent publication EP4772500A1, “NOVEL ISOXAZOLE COMPOUND AS TM4SF5-SPECIFIC INHIBITOR AND USE THEREOF” (Seoul National University R&DB Foundation, priority 2023, dated 2025).

The test system of this assay is C57BL/6 mice on Methionine-Choline Deficient (MCD) diet. Nature of the assay: MCD diet non-alcoholic steatohepatitis (NASH) mouse model. The assay is classed as in vivo. An excerpt: Wildtype (WT), Alb-TG^Tm4sf5-Flag, and Tm4sf5^-/- (Tm4sf5 gene-deficient) KO C57BL/6N mice were raised in a pathogen-free room animal facility where temperature and humidity were well controlled. For the experiment to establish the steatohepatitis NASH disease model, 22-week-old mice were used. For the induction of hepatic steatohepatitis through an MCD (TD.90262, Teklad) diet, 6-week-old male mice were randomly divided into normal chow diet (NCD, Purina, Cat # 38057) and MCD groups and allowed free access to the diet for 4 weeks (7 mice per group). When treating with drugs, intraperitoneal injection was performed at a concentration of 5 mg/kg twice a week. After the end of the experiment, liver tissues were obtained and analyzed through methods of H&E, immunohistochemistry tissue staining, Western blot, and qRT-PCR.
Normal 22-week-old C57BL/6 mice were randomly divided into a normal chow diet (NCD) group and a Methionine-Choline Deficient (MCD) diet group, which is a non-alcoholic steatohepatitis (NASH) induction diet, with 3 to 6 mice per group, and were allowed free access to the diets for 4 weeks. Simultaneously, vehicle (DMSO) or ST-2-001 at a concentration of 5 mg/kg was treated twice a week per animal via intraperitoneal injection (IP). After 4 weeks, liver tissues were obtained, and Masson's Trichrome staining showing the accumulation of collagen I (degree of fibrosis) and immunohistochemistry using antibodies against the given factors were performed. Representative images were obtained by randomly scanning the stained liver tissue sections using a digital slide scanner (MoticEasyScan, Motic, British Columbia, Canada). Additionally, tissue extracts were obtained from a portion of the liver tissues to perform Western blotting or qRT-PCR for the given factors, thereby confirming the mRNA and protein expression levels and phosphorylation degrees of signaling factors related to the induction of NASH-fibrosis symptoms and the regulation of T or NK cell activity. Meanwhile, in addition to the animal models, it was intended to confirm whether the expressions of TM4SF5, laminin γ2, and AFP correlate with each other at the hepatocyte level and are regulated by the TM4SF5-specific inhibitor isoxazole compound.

Where [1] appears, read: MCD diet, liver tissue extracts (FIG. 8c).

Regarding `COc1ccc(-c2cc(-c3ccc(NC(C)=O)cc3)no2)cc1` [ST-2-001, N-(4-(5-(4-methoxyphenyl)isoxazole-3-yl)phenyl)acetamide], the NASH-fibrosis symptoms result (MCD diet, 5 mg/kg IP twice a week, 4 weeks, tissue staining (FIG. 8a)) was “clearly inhibited”. Moreover, under setting [1], the “CPT1 (carnitine palmitoyltransferase 1)” value is recorded as “rather increased”; the “expressions and levels of fibrosis-related factors, factors related to lipogenesis and steatosis, and cytokines/chemokines related to inflammation” value is “suppressed”. Besides, the “α-Sma, Afp, and Pd-ll expression” value (MCD diet, liver tissue extracts, Western blotting (FIG. 8b)) is “decreased”. Besides, the “mRNA levels for lipogenesis (Acc, Dgat2, Fasn) and activation of Kupffer cells (Trem2, Tim4, Clec4j)” value (MCD diet, liver tissues, qRT-PCR (FIG. 8d)) is on record as “inhibited”. In addition, the “effect on the liver tissue or the expression of the stained factors” value (NCD (normal chow diet), 5 mg/kg IP twice a week (FIG. 8a)) was “had no effect”. Moreover, where the note is “NCD, liver tissue extracts, Western blotting (FIG. 8b)”, the “expression of α-Sma, Afp, Pd-l1” value is given as “slightly decreased”.
